Source: patent publication US20150038435A1, “N-TERMINALLY MODIFIED OLIGOPEPTIDES AND USES THEREOF” (Novo Nordisk A/S, priority 2012, published 2015)
Starred links: 1 amine or outer side, 2 acyl side, 3 side chain; linkers in the order of their positions; H or OH if unused. Non-standard residues stand in square brackets, D forms with d. *: point of attachment. γGlu = O=C(O)[C@H](CCC(=O)[*:2])N[*:1]; C14 diacid = O=C(O)CCCCCCCCCCCCC(=O)*; Lauroyl = CCCCCCCCCCCC(=O)*

How the values were obtained:
Trypsin = experiment: Inhibition of enzymatic degradation of a model GLP-1 (FRET substrate) by trypsin; assay type: biochemical; conditions: for EC50: read-out: EC50 Trypsin (0.001 mg/ml), 0.001 mg/ml trypsin, 37° C.
In short: (§1)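 MCA/DNP-labelled model GLP-1 FRET substrate (10 μl of 100 μM stock) in Dulbecco's PBS at 37° C with varying acylated peptide; fluorescence (ex 320/em 405 nm) read every minute for ≥30 min. Initial slopes from linear regression, duplicates averaged; EC50 by sigmoidal logistic fit of slope vs concentration.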

Chymotrypsin = experiment: Inhibition of enzymatic degradation of a model GLP-1 (FRET substrate) by chymotrypsin; assay type: biochemical; conditions: for EC50: read-out: EC50 Chymotrypsin (0.001 mg/ml), 0.001 mg/ml chymotrypsin, 37° C., ± standard error if at least 3 measurements
In short: as §1

[1] = Hydrophobicity: retention time during reverse phase HPLC; assay type: physicochemical; conditions: Acquity CSH C18; pH 7.2 buffer/CH3CN gradient; 40° C.
Text: The retention time (RT) during reverse phase HPLC was taken as a measure of hydrophobicity of an N-terminally modified peptide or oligopeptide of the invention, where the connection is: The longer the RT, the more hydrophobic N-terminally modified peptide or oligopeptide. The following running conditions were applied during HPLC analysis:
Buffer B: 70% (v/v) aq. CH3CN

[2] = compound 0.1 mM, buffer containing 8% DMSO

Row | Substance | Slope of the initial increase in fluorescence obtained during incubation with 0.001 mg/ml Trypsin (Trypsin; [2]) | Slope of the initial increase in fluorescence obtained during incubation with 0.001 mg/ml Chymotrypsin (Chymotrypsin; [2]) | RT (retention time during reverse phase HPLC as a measure of hydrophobicity) [1] [min] | Slope of the initial increase in fluorescence obtained during incubation with 0.001 mg/ml Trypsin (Trypsin; compound 1 mM) | Slope of the initial increase in fluorescence obtained during incubation with 0.001 mg/ml Chymotrypsin (Chymotrypsin; compound 1 mM) | EC50 (Trypsin) [µM] | EC50 (Chymotrypsin) [µM]
1 | N-dodecanoyl-Ser-Pro-Tyr-OH [Example 107] | 1.99 | 0.89 | 5.58 |  |  |  | 
2 | N-dodecanoyl-Thr-Ala-Ala-Pro-Tyr-OH [Example 52] | 1.68 | 0.01 | 5.47 |  |  |  | 
3 | N-dodecanoyl-Thr-Ala-Pro-Tyr-OH (Lauroyl-TAPY-OH; SMILES CCCCCCCCCCCC(=O)N[C@H](C(=O)N[C@@H](C)C(=O)N1CCC[C@H]1C(=O)N[C@@H](Cc1ccc(O)cc1)C(=O)O)[C@@H](C)O) [Example 53] | 1.80 | 0.16 | 5.52 |  |  |  | 
4 | N-dodecanoyl-Thr-Pro-Tyr-OH [Example 108] | 1.92 | 0.59 | 5.72 |  |  |  | 
5 | N-dodecanoyl-Trp-Pro-Tyr-OH [Example 109] | 0.73 | 0.05 | 8.24 |  |  |  | 
6 | N-dodecanoyl-Tyr-Pro-Tyr-OH [Example 110] | 1.77 | 0.35 | 6.24 |  |  |  | 
7 | N-dodecanoyl-Val-Ala-Ala-Pro-Tyr-OH [Example 54] | 1.95 | 0.95 | 7.08 |  |  |  | 
8 | N-dodecanoyl-Val-Ala-Pro-Tyr-OH (Lauroyl-VAPY-OH; SMILES CCCCCCCCCCCC(=O)N[C@H](C(=O)N[C@@H](C)C(=O)N1CCC[C@H]1C(=O)N[C@@H](Cc1ccc(O)cc1)C(=O)O)C(C)C) [Example 55] | 1.88 | 0.42 | 7.01 |  |  |  | 
9 | N-dodecanoyl-Val-Pro-Tyr-OH [Example 111] | 1.93 | 0.31 | 7 |  |  |  | 
10 | N-dodecanoyl-βAla-Ala-Pro-Phe-OH [Example 8] |  |  | 6.13 | 0.70 | 0.03 |  | 
11 | N-dodecanoyl-βAla-βAla-Pro-Phe-OH [Example 10] |  |  | 6.04 | 3.29 | 0.05 |  | 
12 | N-dodecanoyl-γGlu-Ala-Ala-Pro-Phe-OH [Example 12] |  |  | 4.04 | 0.30 | 0.76 |  | 
13 | N-dodecanoyl-γGlu-Ala-Ala-Pro-Tyr-OH [Example 97] | 1.31 | 0.55 | 3.79 |  |  |  | 
14 | N-dodecanoyl-γGlu-Ala-Pro-Tyr-OH (Lauroyl-[γGlu]APY-OH; SMILES CCCCCCCCCCCC(=O)N[C@@H](CCC(=O)N[C@@H](C)C(=O)N1CCC[C@H]1C(=O)N[C@@H](Cc1ccc(O)cc1)C(=O)O)C(=O)O) [Example 98] | 1.53 | 1.39 | 3.79 |  |  |  | 
15 | N-dodecanoyl-γGlu-OEG-Ala-Ala-Pro-Phe-OH [Example 125] |  |  | 3.95 | 0.38 | 0.75 |  | 
16 | N-dodecanoyl-γGlu-OEG-OEG-Arg-OH [Example 132] |  |  | 3.62 | 0.26 | 0.35 |  | 
17 | N-dodecanoyl-γGlu-OEG-OEG-DArg-OH [Example 133] |  |  | 3.62 | 0.09 | 0.27 |  | 
18 | N-dodecanoyl-γGlu-OEG-Pro-Arg-OH [Example 127] |  |  | 3.67 | 0.72 | 0.62 |  | 
19 | N-dodecanoyl-γGlu-Pro-Tyr-OH [Example 100] | 1.69 | 1.75 | 3.9 |  |  |  | 
20 | N-dodecanoyl-γGlu-γGlu-Ala-Ala-Pro-Tyr-OH [Example 99] | 1.52 | 0.35 | 3.41 |  |  |  | 
21 | N-hexadecanoyl-γGlu-OEG-Ala-Ala-Pro-Phe-OH [Example 134] |  |  | 7 |  |  | 46 | 48
22 | N-tetradecandioyl-Ala-Ala-Pro-Phe-OH ({C14 diacid}-AAPF-OH) [Example 16] |  |  | 3.11 | 3.23 | 0.14 |  | 
23 | N-tetradecanoyl-Ala-Ala-Pro-DPhe-OH [Example 5] |  |  | 9.74 | 0.35 | 0.09 |  | 105
24 | N-tetradecanoyl-Ala-Ala-Pro-Phe-OH [Example 3] |  |  | 9.74 | 0.37 | 0.01 | 74 | 57 ± 2
25 | N-tetradecanoyl-βAla-Ala-Pro-Phe-OH [Example 9] |  |  | 8.73 | 0.21 | 0.01 |  | 
26 | N-tetradecanoyl-βAla-βAla-Pro-Phe-OH [Example 136] |  |  | 8.73 |  |  | 13 | 106
27 | N-tetradecanoyl-βAla-βAla-βAla-Pro-Phe-OH [Example 138] |  |  | 8.16 |  |  | 39 | 154
28 | N-tetradecanoyl-γGlu-OEG-Ala-Ala-Pro-Phe-OH [Example 126] |  |  | 5.02 | 0.30 | 0.05 | > 500 | 102
